Reference: article PMC7397336, “5-(4H)-Oxazolones and Their Benzamides as Potential Bioactive Small Molecules” (Molecules, 2020)
Marks after values point to notes of the source that are not given here.

Experiments:
[1] = Inhibition of linoleic acid lipid peroxidation (AAPH)
Excerpt: Azo compounds, like AAPH, generating free radicals through spontaneous thermal decomposition are useful for in vitro studies of free radical production. Production of conjugated diene hydroperoxide by oxidation of sodium linoleate in an aqueous solution is monitored at 234 nm. This assay can be used to follow oxidative changes and to understand the contribution of each tested compound. […] It seems that the presence of moiety Ar (Scheme 1) is mainly correlated with the antioxidant result. The nature of the heteroatom O/S in Ar substituent in the 5-membered oxazolone ring (compounds 2c and 2e) influences the biological response. The replacement of the thienyl group in 2c by a furyl group (2e) leads to a 31% decrease of the antioxidant ability.
Each in vitro experiment was performed at least in triplicate and the standard deviation of absorbance was less than 10% of the mean. For the in vitro assays, a stock solution (1% DMSO in the appropriate buffer with the tested compound diluted under sonification) was prepared from which several dilutions were made with the appropriate buffer.
The AAPH-induced oxidation of linoleic acid measures the ability of an antioxidant to prevent oxidation of linoleic acid sodium salt induced by alkylperoxyl radicals, generated from the water soluble azo compound 2,2′-azobis(2-amidinopropane) dihydrochloride (AAPH). The assay was performed according to our previous publications. Trolox was used as reference compound.

mushroom tyrosinase = mushroom tyrosinase (Agaricus bisporus, UniProt C7FF04); assay: Tyrosinase inhibition assay; format: biochemical; conditions: L-Dopa substrate; for inhibition at 100 µM: read-out: ΤyrI% 100 μM (inhibition of mushroom tyrosinase)
Experimental: For the in vitro assays, a stock solution (1% DMSO in the appropriate buffer with the tested compound diluted under sonification) was prepared from which several dilutions were made with the appropriate buffer.

soybean lipoxygenase = target: T1, soybean lipoxygenase (Glycine max, UniProt P08170); assay: Soybean lipoxygenase inhibition study; format: biochemical; conditions: for inhibition at 100 µM: read-out: LOX % inhibition 100 μM; for IC50: soybean lipoxygenase, sodium linoleate 0.1 mM, read-out: LOX IC50
T1 construct: purchased Sigma Chemical, Co. (St. Louis, MO, USA)
T1 sequence (P08170 1-839): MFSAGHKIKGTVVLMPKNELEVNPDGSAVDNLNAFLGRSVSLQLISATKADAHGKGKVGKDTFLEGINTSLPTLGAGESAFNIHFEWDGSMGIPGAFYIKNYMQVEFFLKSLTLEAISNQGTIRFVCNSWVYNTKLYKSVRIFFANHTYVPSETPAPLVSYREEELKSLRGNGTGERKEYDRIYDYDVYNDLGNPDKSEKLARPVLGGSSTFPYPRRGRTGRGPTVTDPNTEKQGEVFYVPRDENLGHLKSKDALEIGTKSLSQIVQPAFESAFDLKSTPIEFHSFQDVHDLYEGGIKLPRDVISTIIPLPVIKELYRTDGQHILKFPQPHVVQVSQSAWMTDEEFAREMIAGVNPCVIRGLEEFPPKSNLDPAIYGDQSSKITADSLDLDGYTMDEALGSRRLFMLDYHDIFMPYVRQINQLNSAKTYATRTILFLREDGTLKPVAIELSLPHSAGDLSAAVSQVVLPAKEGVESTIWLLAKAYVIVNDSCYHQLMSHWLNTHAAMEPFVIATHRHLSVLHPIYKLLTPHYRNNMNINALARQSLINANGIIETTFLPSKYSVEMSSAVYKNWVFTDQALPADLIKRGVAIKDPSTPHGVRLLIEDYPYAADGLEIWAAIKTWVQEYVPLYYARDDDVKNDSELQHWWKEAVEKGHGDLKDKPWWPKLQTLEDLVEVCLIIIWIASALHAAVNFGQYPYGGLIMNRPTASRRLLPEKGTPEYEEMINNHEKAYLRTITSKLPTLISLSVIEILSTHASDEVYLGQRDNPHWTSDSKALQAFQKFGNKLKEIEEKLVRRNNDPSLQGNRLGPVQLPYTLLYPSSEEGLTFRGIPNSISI
Experimental: For the in vitro assays, a stock solution (1% DMSO in the appropriate buffer with the tested compound diluted under sonification) was prepared from which several dilutions were made with the appropriate buffer. DMSO solution of the tested compound (stock solutions 10 mM) was incubated with sodium linoleate (0.1 mM) and 0.2 mL of soybean lipoxygenase solution (1/9 × 10^−4 w/v in saline) at room temperature. The test follows our previous published methods. […] Several concentrations were used to determine the IC50.

[2] = tested on: carrageenin-induced rat paw edema; assay: Inhibition of the carrageenin-induced rat paw edema; format: in vivo, Fisher 344 rats; conditions: 0.0057 mmol/kg body weight i.p., 3.5 h after carrageenin
Experimental: For the estimation of anti-inflammatory potential of the tested compounds the rat carrageenin induced paw edema assay was employed as a model for acute inflammation. Indomethacin, as a reference drug, and our compounds were administered intraperitoneally in order to ensure systemic response via fast bioavailability, while carrageenin’s intradermal administration, as inflammatory agent, aimed to local response. The development of the edema induced by carrageenin has been described as a biphasic event. The early phase of the inflammatory response, lasting 0.5–1.5 h, is chiefly mediated by histamine and serotonin release inducing hyperalgesia, swelling and redness, while the later phase, lasting 3–6 h, is sustained presumably by prostaglandin release. This model reliably predicts the anti-inflammatory efficacy of the NSAIDs during the second phase, since non-steroidal anti-inflammatory drugs (NSAIDs) present weak activity in the first phase. Therefore, using this protocol we could evaluate our compounds as potential anti-inflammatory agents, as a result of inhibition of prostaglandin amplification.
The animals (Fisher 344 rats), which have been bred in our laboratory, were housed under standard conditions and received a diet of commercial food pellets and water ad libitum during the maintenance but they were entirely fasted during the experiment period. Both sexes were used while females pregnant were excluded. Each group was composed of 6–15 animals. Our studies were in accordance with recognized guidelines on animal experimentation (guidelines for the care and use of laboratory animals published by the Greek Government 160/1991, based on EU regulations 86/609). […]
Edema was induced in the right hind paw of the rats by the intradermal injection of 0.1 mL 2% carrageenin in water we followed our previous published method. […] The change in paw weight was compared with that in control animals (treated with water) and expressed as a percent inhibition of the edema CPE % values. […]

Chain of mushroom tyrosinase (G1K3P4 entry or part of it): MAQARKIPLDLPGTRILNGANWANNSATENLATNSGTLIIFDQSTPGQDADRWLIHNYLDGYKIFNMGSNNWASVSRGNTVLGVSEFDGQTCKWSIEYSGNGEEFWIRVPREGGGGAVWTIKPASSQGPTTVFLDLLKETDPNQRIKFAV
Chain of mushroom tyrosinase (C7FF04 1-392): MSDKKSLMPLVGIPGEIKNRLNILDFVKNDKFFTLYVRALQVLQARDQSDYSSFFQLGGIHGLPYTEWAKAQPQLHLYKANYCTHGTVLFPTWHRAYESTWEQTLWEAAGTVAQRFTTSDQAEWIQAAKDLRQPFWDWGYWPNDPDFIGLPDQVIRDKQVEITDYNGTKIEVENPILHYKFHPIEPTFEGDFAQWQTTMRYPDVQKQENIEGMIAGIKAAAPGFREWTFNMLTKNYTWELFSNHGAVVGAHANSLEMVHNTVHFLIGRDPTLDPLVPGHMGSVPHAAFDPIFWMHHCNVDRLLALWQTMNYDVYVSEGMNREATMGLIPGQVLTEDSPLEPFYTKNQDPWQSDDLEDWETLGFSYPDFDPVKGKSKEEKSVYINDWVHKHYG

Row | ΤyrI% 100 μM (inhibition of mushroom tyrosinase) (mushroom tyrosinase) | LOX % inhibition 100 μM (soybean lipoxygenase; 100 µM) | melting point [°C] | inhibition at 100 µM (mushroom tyrosinase) [%] | LOX % inhibition 100 μM (soybean lipoxygenase; 100 μM) [%] | inhibition at 100 µM (soybean lipoxygenase; 100 µM) [%] | IC50 (soybean lipoxygenase) [µM] | SMILES | AAPH% 100 µM (anti-lipid peroxidation) [1] | CPE (%) inhibition of carrageenin-induced rat paw edema [2]
1 | no | no | – | – | – | – | – | O=C1OC(c2ccccc2)=N/C1=C\c1ccccc1 [Compound 2a, (Z)-4-Benzylidene-2-phenyloxazol-5(4H)-one] | 95% | –
2 | no | no | 199 to 200 | – | – | – | – | O=C1OC(c2ccccc2)=N/C1=C\c1ccc(OCc2ccc(Br)cc2)cc1 [Compound 2b, (Z)-4-(4-((4-Bromobenzyl)oxy)benzylidene)-2-phenyloxazol-5(4H)-one] | 79% | –
3 | – | no | – | 16 | – | – | – | O=C1OC(c2ccccc2)=N/C1=C\c1cccs1 [Compound 2c, (Z)-2-Phenyl-4-(thiophen-2-ylmethylene)oxazol-5(4H)-one] | 91% | –
4 | – | – | 169 to 171 | 5 | 49 | < 50 | – | O=C1OC(c2ccccc2)=N/C1=C\c1cccc2ccccc12 [Compound 2d, (Z)-4-(Naphthalen-1-ylmethylene)-2-phenyloxazol-5(4H)-one] | 81% | –
5 | – | – | – | 3 | – | – | – | O=C1OC(c2ccccc2)=N/C1=C\c1ccco1 [Compound 2e, (Z)-4-(Furan-2-ylmethylene)-2-phenyloxazol-5(4H)-one] | 60% | –
6 | – | no | 169 | – | – | – | – | O=C1OC(c2ccccc2)=N/C1=C\c1ccc(Oc2ccccc2)cc1 [Compound 2f, (Z)-4-(4-Phenoxybenzylidene)-2-phenyloxazol-5(4H)-one] | no | –

More lines, now with the values behind:

Row | SMILES | ΤyrI% 100 μM (inhibition of mushroom tyrosinase) (mushroom tyrosinase) | LOX % inhibition 100 μM (soybean lipoxygenase; 100 µM) | melting point [°C] | inhibition at 100 µM (mushroom tyrosinase) [%] | LOX % inhibition 100 μM (soybean lipoxygenase; 100 μM) [%] | inhibition at 100 µM (soybean lipoxygenase; 100 µM) [%] | IC50 (soybean lipoxygenase) [µM] | AAPH% 100 µM (anti-lipid peroxidation) [1] | CPE (%) inhibition of carrageenin-induced rat paw edema [2]
7 | O=C(N/C(=C\c1cccs1)C(=O)N1CCOCC1)c1ccccc1 [Compound 3c, (Z)-N-(3-morpholino-3-oxo-1-(thiophen-2-yl)prop-1-en-2-yl)benzamide] | – | – | 184 to 186 | 7 | 39 | < 50 | – | 93% | –
8 | O=C(N/C(=C\c1cccc2ccccc12)C(=O)N1CCOCC1)c1ccccc1 [Compound 3d, (Z)-N-(3-morpholino-1-(naphthalen-1-yl)-3-oxoprop-1-en-2-yl)benzamide] | – | – | 135 to 137 | – | 37 | < 50 | – | 91% | –
9 | O=C(N/C(=C\c1ccc(OCc2ccc(Br)cc2)cc1)C(=O)N1CCN(C(=O)/C(=C/c2ccc(OCc3ccc(Br)cc3)cc2)NC(=O)c2ccccc2)CC1)c1ccccc1 [Compound 4b, N,N′-((1Z,1′Z)-piperazine-1,4-diylbis(1-(4-((4-bromobenzyl)oxy)phenyl)-3-oxoprop-1-ene-3,2-diyl))-bis-benzamide] | – | – | 285 to 286 | 12 | – | – | 85 | 99% | –
10 | O=C(N/C(=C\c1cccc2ccccc12)C(=O)N1CCN(C(=O)/C(=C/c2cccc3ccccc23)NC(=O)c2ccccc2)CC1)c1ccccc1 [Compound 4d, N,N′-((1Z,1′Z)-piperazine-1,4-diylbis(1-(naphthalen-1-yl)-3-oxoprop-1-ene-3,2-diyl))bisbenzamide] | – | – | 282 to 284 | 28 | – | – | 65 | 90% | –
11 | O=C(N/C(=C\c1ccco1)C(=O)N1CCN(C(=O)/C(=C/c2ccco2)NC(=O)c2ccccc2)CC1)c1ccccc1 [Compound 4e, N,N′-((1Z,1′Z)-piperazine-1,4-diylbis(1-(furan-2-yl)-3-oxoprop-1-ene-3,2-diyl))bisbenzamide] | – | – | 293 to 295 | 17 | – | – | 88 | 83% | –
12 | O=C(N/C(=C\c1cccs1)C(=O)N1CCCCC1)c1ccccc1 [Compound 5c, (Z)-N-(3-Oxo-3-(piperidin-1-yl)-1-(thiophen-2-yl)prop-1-en-2-yl)benzamide] | – | – | 181 to 182 | 13 | 41 | < 50 | – | 72% | –
13 | CCOC(=O)/C(=C/c1cccs1)NC(=O)c1ccccc1 [Compound 6c, (Z)-Ethyl 2-benzamido-3-(thiophen-2-yl)acrylate] | – | – | 156 to 159 | 5 | 36 | < 50 | – | 59% | –
14 | COc1ccc2c(c1)c(CC(=O)O)c(C)n2C(=O)c1ccc(Cl)cc1 [Indomethacin, reference compound] | – | – | – | – | – | – | – | – | 58 ** %
15 | Cc1c(C)c2c(c(C)c1O)CCC(C)(C(=O)O)O2 (centres unmarked) [Trolox, reference compound] | – | – | – | – | – | – | – | 93% | –
